Blank lines part the entries; values can stand above or below the molecule they belong to. Non-standard residues stand in square brackets, D forms with d. Residues, ends and D or L forms follow the SMILES beside them. No end group written: not given here. pY = N[C@@H](Cc1ccc(OP(=O)(O)O)cc1)C(=O)O
Legend:
[1] = target: T1, talin F3 (Mus musculus, UniProt P26039); assay: 1H-15N HSQC NMR titration of talin F3 with peptides; assay type: binding; conditions: for perturbation of contact residues in the MP region: mutant chimeric peptides added to wild-type talin F3, MD site binding unchanged
T1 construct: labeled talin F3 domain was expressed and purified as described previously (de Pereda et al., 2005); made in house
T1 sequence (P26039 309-405 limits assumed): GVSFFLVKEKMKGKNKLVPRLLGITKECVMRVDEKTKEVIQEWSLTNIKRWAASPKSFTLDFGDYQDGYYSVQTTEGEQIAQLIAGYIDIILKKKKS
Description: (§1) Talin F3 L325R and Q381V mutants were titrated with the original β3/PIPKIγ chimera, while the effect of peptide mutations (F727A and F730A) was assessed using wild-type talin F3.
We set out to obtain a structural explanation for the unusual ability of the talin PTB domain to activate integrins. An initial exploration of the interactions was carried out by adding various tail-derived β3-integrin peptides to the F3 sub-domain of talin, while monitoring the chemical shift perturbations in ^1H-^15N HSQC NMR spectra. The peptide sequences and the nomenclature used are set out in FIG. 1A. The MP peptide corresponds to the N-terminal region of the cytoplasmic β-tail. A peptide comprised of the β-tail region previously visualized in the crystal structure (Garcia-Alvarez et al., 2003), is denoted MD; this peptide primarily causes chemical shift perturbations in strand S5 (de Pereda et al., 2005).
(§2) ^1H-^15N-HSQC titrations were performed as previously described (de Pereda et al., 2005). Weighted shifts (Δδ(HN,N)) were calculated using the equation: Δδ(HN,N)=((ΔδHNWHN)^2+(ΔδNWN)^2)^1/2, where WHN and WN are weighting factors for the HN and N shifts respectively (WHN=1, WN=0.154) (Ayed et al., 2001) and Δδ=δbound−δfree. Talin F3 domains in complex with slow-exchanging peptides, as well as mutant F3 domains, were assigned by correlation to the wild-type talin F3 assignments (de Pereda et al., 2005) and confirmed using 3D gradient-enhanced [^1H-^15N]-NOESY-HSQC (τm=100 ms) spectra alone, or in combination with [^1H-^15N]-TOCSY-HSQC (τm=70 ms) spectra. ^13CO, ^13Cα and ^13Cβ shifts were obtained using a series of 2D ^1H-^15N-^13C experiments (Bersch et al., 2003). Bound peptide shifts were obtained using U—^15N,^2H F3 and unlabeled chimeric peptide (1.3:1). Both bound and unbound chimeric peptide shifts were assigned using 2D NOESY, TOCSY and COSY spectra. DOK PTB domain assignments were obtained previously (unpublished).

[2] = Solubility of peptide at the concentrations used for NMR; assay type: physicochemical
Description: NMR studies of the interaction with full-length β3 cytoplasmic tail were more challenging. The off-rates of the complex correspond to an ‘intermediate exchange’ regime, with peaks broadening and disappearing rather than changing position. It was, however, possible to define perturbed residues by plotting the percentage decrease in peak height upon addition of the peptide (FIGS. 1D and 8). The perturbed residues are essentially the sum of those affected by the MD peptide and the MP peptide (FIGS. 1 and 8). The β3 tail/talin F3 interactions can thus be considered in two parts, one corresponding to the previously defined interaction at the MD-site, the other corresponding to the MP-site. […] This, together with exchange broadening of lines, made the β3 tail an unsuitable ligand for studying the structure of the talin-integrin complex by NMR at atomic resolution.

[3] = test system: β3/PIPKIγ chimera; assay: 1H-15N HSQC NMR titration of talin F3 mutants with chimeric peptide; conditions: talin F3 mutants titrated with the original β3/PIPKIγ chimera; MD site binding unchanged
Sequence of β3/PIPKIγ chimera (as listed by the source, change not shown): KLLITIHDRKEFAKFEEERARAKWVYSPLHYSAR
Description: as §1
Mutations to the contact residues in talin F3 (L325R, S365D, S379R, or Q381V) were also made to see if they disrupted the F3/MP interaction.
as §2

[4] = target: T2, Talin F3 W359A (Mus musculus, UniProt P26039, W359A); assay: Isothermal titration calorimetry, chimeric peptide binding to talin F3 mutant; conditions: ITC, relative to wild type talin F3
T2 construct: injected into the cell containing wildtype or mutant talin F3 domain; made in house
Description: Peptide concentrations were typically at 150 to 300 μM while protein concentrations ranged from 25 to 50 μM. For the W359A mutant, the protein concentration was 50 μM and the peptide concentration was 1 mM. Prior to ITC titrations, the peptides and proteins were in buffer consisting of 200 mM Tris, 300 mM NaCl, pH 7.5. All experiments were conducted at 23 degrees Celsius. […] The bottom panel is the binding curve, calculated using the software program Origin.
Thermodynamic parameters for the binding of WT and mutant talin F3 to the β3 chimeric peptides were measured using isothermal titration calorimetry (Table 2, FIG. 12). In general, mutations that disrupt the MP site, either in the β-tail or talin F3, have relatively little effect on the Kd values (Table 2). This probably arises because of a balance between enthalpy gain and entropy loss, consistent with stabilization of the MP helix on talin binding in the wild-type but not mutant structures. In sharp contrast, the talin (W359A) mutant, which inhibits binding of the MD-site of the β3 tail, reduced the affinity ˜1000 fold, similar to the effect of mutations in the NPxY region of the integrin tail, which abrogate MD binding (Ulmer et al., 2003).
Isothermal titration calorimetry (ITC) was performed on a VP-ITC calorimeter (Microcal, Northampton, Mass.). […] Experimental data were analyzed using Microcal Origin software.

perturbation of contact residues in the MP region [1]: markedly reduced
Molecule: CC[C@H](C)[C@H](NC(=O)[C@H](CC(C)C)NC(=O)[C@H](CC(C)C)NC(=O)[C@H](CCCCN)NC(=O)[C@@H](N)CCCCN)C(=O)N[C@H](C(=O)N[C@H](C(=O)N[C@@H](Cc1c[nH]cn1)C(=O)N[C@@H](CC(=O)O)C(=O)N[C@@H](CCCNC(=N)N)C(=O)N[C@@H](CCCCN)C(=O)N[C@@H](CCC(=O)O)C(=O)N[C@@H](C)C(=O)N[C@@H](C)C(=O)N[C@@H](CCCCN)C(=O)N[C@@H](Cc1ccccc1)C(=O)N[C@@H](CCC(=O)O)C(=O)N[C@@H](CCC(=O)O)C(=O)N[C@@H](CCC(=O)O)C(=O)N[C@@H](CCCNC(=N)N)C(=O)N[C@@H](C)C(=O)N[C@@H](CCCNC(=N)N)C(=O)N[C@@H](C)C(=O)N[C@@H](CCCCN)C(=O)N[C@@H](Cc1c[nH]c2ccccc12)C(=O)N[C@H](C(=O)N[C@@H](Cc1ccc(OP(=O)(O)O)cc1)C(=O)N[C@@H](CO)C(=O)N1CCC[C@H]1C(=O)N[C@@H](CC(C)C)C(=O)N[C@@H](Cc1c[nH]cn1)C(=O)N[C@@H](Cc1ccc(O)cc1)C(=O)N[C@@H](CO)C(=O)N[C@@H](C)C(=O)N[C@@H](CCCNC(=N)N)C(=O)O)C(C)C)[C@@H](C)CC)[C@@H](C)O [β3 chimera F727A] (H-KKLLITIHDRKEAAKFEEERARAKWV[pY]SPLHYSAR-OH; N-terminus and C-terminus assumed)

perturbation of contact residues in the MP region [1]: undetectable
Molecule: CC[C@H](C)[C@H](NC(=O)[C@H](CC(C)C)NC(=O)[C@H](CC(C)C)NC(=O)[C@H](CCCCN)NC(=O)[C@@H](N)CCCCN)C(=O)N[C@H](C(=O)N[C@H](C(=O)N[C@@H](Cc1c[nH]cn1)C(=O)N[C@@H](CC(=O)O)C(=O)N[C@@H](CCCNC(=N)N)C(=O)N[C@@H](CCCCN)C(=O)N[C@@H](CCC(=O)O)C(=O)N[C@@H](Cc1ccccc1)C(=O)N[C@@H](C)C(=O)N[C@@H](CCCCN)C(=O)N[C@@H](C)C(=O)N[C@@H](CCC(=O)O)C(=O)N[C@@H](CCC(=O)O)C(=O)N[C@@H](CCC(=O)O)C(=O)N[C@@H](CCCNC(=N)N)C(=O)N[C@@H](C)C(=O)N[C@@H](CCCNC(=N)N)C(=O)N[C@@H](C)C(=O)N[C@@H](CCCCN)C(=O)N[C@@H](Cc1c[nH]c2ccccc12)C(=O)N[C@H](C(=O)N[C@@H](Cc1ccc(OP(=O)(O)O)cc1)C(=O)N[C@@H](CO)C(=O)N1CCC[C@H]1C(=O)N[C@@H](CC(C)C)C(=O)N[C@@H](Cc1c[nH]cn1)C(=O)N[C@@H](Cc1ccc(O)cc1)C(=O)N[C@@H](CO)C(=O)N[C@@H](C)C(=O)N[C@@H](CCCNC(=N)N)C(=O)O)C(C)C)[C@@H](C)CC)[C@@H](C)O [β3 chimera F730A] (H-KKLLITIHDRKEFAKAEEERARAKWV[pY]SPLHYSAR-OH; N-terminus and C-terminus assumed)

Molecule: CC[C@H](C)[C@H](NC(=O)[C@H](CC(C)C)NC(=O)[C@H](CC(C)C)NC(=O)[C@H](CCCCN)NC(=O)[C@@H](N)CCCCN)C(=O)N[C@H](C(=O)N[C@H](C(=O)N[C@@H](Cc1c[nH]cn1)C(=O)N[C@@H](CC(=O)O)C(=O)N[C@@H](CCCNC(=N)N)C(=O)N[C@@H](CCCCN)C(=O)N[C@@H](CCC(=O)O)C(=O)N[C@@H](Cc1ccccc1)C(=O)N[C@@H](C)C(=O)N[C@@H](CCCCN)C(=O)N[C@@H](Cc1ccccc1)C(=O)N[C@@H](CCC(=O)O)C(=O)N[C@@H](CCC(=O)O)C(=O)N[C@@H](CCC(=O)O)C(=O)N[C@@H](CCCNC(=N)N)C(=O)N[C@@H](C)C(=O)N[C@@H](CCCNC(=N)N)C(=O)N[C@@H](C)C(=O)N[C@@H](CCCCN)C(=O)N[C@@H](Cc1c[nH]c2ccccc12)C(=O)N[C@H](C(=O)N[C@@H](Cc1ccc(OP(=O)(O)O)cc1)C(=O)N[C@@H](CO)C(=O)N1CCC[C@H]1C(=O)N[C@@H](CC(C)C)C(=O)N[C@@H](Cc1c[nH]cn1)C(=O)N[C@@H](Cc1ccc(O)cc1)C(=O)N[C@@H](CO)C(=O)N[C@@H](C)C(=O)N[C@@H](CCCNC(=N)N)C(=O)O)C(C)C)[C@@H](C)CC)[C@@H](C)O [β3 chimera] (H-KKLLITIHDRKEFAKFEEERARAKWV[pY]SPLHYSAR-OH; N-terminus and C-terminus assumed)
binding to talin (NMR) ([1]; 25° C.): bind to talin and form a tight, highly soluble 1:1 complex

solubility [2]: limited solubility
Molecule: KLLITIHDRKEFAKFEEERARAKWDTANNPLYKEATSTFTNITYRGT [full-length β3 tail]

B1: F3-Q381V: talin F3 domain mutant Q381V (protein)
chain: GVSFFLVKEKMKGKNKLVPRLLGITKECVMRVDEKTKEVIQEWSLTNIKRWAASPKSFTLDFGDYQDGYYSVVTTEGEQIAQLIAGYIDIILKKKKS
perturbation of contact residues in the MP region [3]: markedly reduced

reduction of affinity for the β3 chimeric peptide [4]: ~1000 fold
B2: talin (W359A): talin F3 domain mutant W359A, inhibits binding of the MD-site of the β3 tail (protein)
chain: GVSFFLVKEKMKGKNKLVPRLLGITKECVMRVDEKTKEVIQEWSLTNIKRAAASPKSFTLDFGDYQDGYYSVQTTEGEQIAQLIAGYIDIILKKKKS

B3: F3-L325R: talin F3 domain mutant L325R (protein)
chain: GVSFFLVKEKMKGKNKRVPRLLGITKECVMRVDEKTKEVIQEWSLTNIKRWAASPKSFTLDFGDYQDGYYSVQTTEGEQIAQLIAGYIDIILKKKKS
perturbation of contact residues in the MP region [3]: undetectable

Source: US8530621B2, “Combined preparation of a thiazide diuretic and a loop diuretic” (The Regents of the University of California, priority 2007, dated 2013)
